“Also recorded” adds a separate entry of the source. Where a SMILES comes first, the peptide text is derived from it.
Assays:
E6/1.2 mAb = test: Solid-phase ELISA of TentaGel-bound synthesized peptide with E6/1.2 mAb; type: binding, mouse
Description: Different biological activities are characteristic of GMDP, including adjuvant activity, induction of non-specific resistance to infections, and the ability to induce Ia-antigen expression on murine macrophages (Khaidukov S. V. 1995). In order to evaluate the biological properties, we produced RN-peptide by solid-phase synthesis by Fmoc strategy. Two types of polymers were used, namely standard Wang's resin and TentaGel (Rapp Polymere, Germany). The synthesis carried out on Wang's resin yielded, after removal of protective groups, the free peptide which was used in biological studies after standard chromatographic purification. When hydrophilic TentaGel was used as solid support, the peptide remained bound to polymer after removal of protective groups enabling evaluation of its binding to E6/1.2 mAb by solid-phase ELISA.
Peptide synthesis. All peptides were synthesized manually by the Fmoc/t-Bu technique. Wang Resin (Bachem, Switzerland) was loaded with Fmoc-Asn(Trt)-OH via diisopropylcarbodiimide-4-dimethylaminopyridine (DIC-DMAP) procedure (Heinzelmann et al. 2000). […] Coupling efficiency during polypeptide chain assembly was routinely monitored by Kaiser ninhydrine test and in case of incomplete reactions extra couplings were carried out. […]

[1] = system: antibody response to ovalbumin; test: Adjuvant activity: antibody response to ovalbumin in mice, titer by solid-phase ELISA; type: in vivo, Balb/c mice; details: for Adjuvant index / Anti-ovalbumin antibody titer: i.p.
Description: To study the adjuvant activity of RN-peptide, Balb/c mice were immunized with ovalbumin in saline in the presence of the RN-peptide, its analogs or GMDP, or without any adjuvant (control). The adjuvant was introduced on first immunization, whereas second immunization was carried out with half dose of OVA without adjuvant.
Adjuvant activity. Groups of 5 Balb/c mice were administered i.p. with 2.5-10 μg ovalbumin (Sigma, USA) per mouse in 200 μl PBS. RN-peptide (0.1-100 μg) or GMDP (1-100 μg) was introduced simultaneously with ovalbumin on first immunization. The second immunization was carried out 28 days later with half dose of ovalbumin (1.25-5.0 μg/200 μl) without adjuvant. Control mice received ovalbumin twice without adjuvant. Three days after the second immunization mice were bled from the tail vein. […] Control mice received polysaccharide without any adjuvant. Five and ten days after immunization mice were bled.
The antibody titer was evaluated by solid-phase ELISA as described by Douillard and Hoffman (1983) Enzyme-linked immunosorbent assay for screening monoclonal antibody production using enzyme-labeled second antibody. The antigen (ovalbumin or polysaccharide), 5 μg/ml in bicarbonate buffer, pH 8.6 (100 μl), was introduced into wells of 96-well microtiter plate. Incubation was carried out overnight at 4° C. The plate was washed 5 times with PBS and 5 times with PBS/0.1% Tween-20 (PBS-T). Remaining binding sites were blocked with 1% gelatin in PBS (2 h, room temperature). After washing 100 μl of mouse serum (1:100 dilution) was added, and serial three-fold dilutions were made. Bound antibodies were visualized by incubation with Horse-Radish-Peroxidase (HRP)-conjugated rabbit anti-mouse antibodies and OPD as the chromogenic substrate.

E. coli strain K12 = test: Anti-infective action: survival of Balb/c mice infected with E. coli strain K12; type: in vivo; details: 1 ng-10 μg i.p. 7 days before infection, LD100 and LD50
Description: Groups of Balb/c mice (20-22 g) were administered i.p. with different doses of RN-peptide (1 ng-10 μg) or GMDP (1 ng-10 μg) in saline. Control mice received saline. […] Survival of mice was assessed during three days.

[2] = system: antibody response to N. meningitidis serogroup C capsular polysaccharide; test: Antibody response to N. meningitidis serogroup C capsular polysaccharide, passive agglutination test; type: in vivo, CBA mice; details: 0.2 μg capsular polysaccharide i.v.
Description: Immunization with capsular polysaccharide of N. meningitidis serogroup C was carried out in CBA mice. Groups of 5 mice were administered i.v. with polysaccharide C (0.2 μg) in saline in the presence of 1-100 μg of RN-peptide. Control mice were immunized with optimal dose (2 μg/mouse) of polysaccharide. Four days later mice were bled from tail vein and the antibody titer was evaluated by passive agglutination test using commercial erythrocyte diagnostic kit.

[3] = Immunogenicity of the peptide: anti-peptide antibody titer by solid-phase ELISA; type: in vivo, Balb/c mice; details: mice immunized once or twice in PBS, 1-100 μg i.p.
Description: Immunogenicity of the peptide. Groups of Balb/c mice (5 mice) were immunized with 1-100 μg RN-peptide in PBS i.p. twice with 10-day interval. The anti-peptide antibody titer was estimated in pooled sera by solid-phase ELISA using MaxiSorb plates (Nunc, Denmark) coated with RN-peptide (10 μg/ml). The anti-peptide antibody titer was compared with the titer of normal mouse serum. E6/1.2 mAb was used as a positive control.

[4] = adjuvant 0.1 μg, ovalbumin 2.5 μg then 1.25 μg
[5] = adjuvant 1 μg, ovalbumin 2.5 μg then 1.25 μg
[6] = adjuvant 1 μg, ovalbumin 10 μg then 5 μg
[7] = adjuvant 10 μg, ovalbumin 2.5 μg then 1.25 μg
[8] = adjuvant 10 μg, ovalbumin 10 μg then 5 μg
[9] = adjuvant 100 μg, ovalbumin 2.5 μg then 1.25 μg
[10] = adjuvant 100 μg, ovalbumin 10 μg then 5 μg

In the case of `CC[C@H](C)[C@H](NC(=O)[C@H](CCCCN)NC(=O)[C@H](C)NC(=O)[C@H](Cc1c[nH]cn1)NC(=O)[C@H](Cc1ccc(O)cc1)NC(=O)[C@H](CCCNC(=N)N)NC(=O)[C@@H]1CCCN1C(=O)[C@@H]1CCCN1C(=O)[C@@H](NC(=O)[C@@H](N)CCCNC(=N)N)C(C)C)C(=O)N[C@@H](CO)C(=O)N1CCC[C@H]1C(=O)N[C@@H](CCSC)C(=O)N[C@H](C(=O)N[C@@H](CC(N)=O)C(=O)O)C(C)C` [RN-peptide, RVPPRYHAKISPMVN] (H-RVPPRYHAKISPMVN-OH), the “binding to GMDP-specific mAb” value (E6/1.2 mAb) is reported as “retained the ability”, the “adjuvant dose of highest response” value ([1]; 2.5 μg OVA) is reported as 10 µg and the “anti-ovalbumin antibody titer (in words)” value ([1]; 100 μg/mouse) is reported as “diminished”. The Adjuvant index [1, 4] was 0.92 ± 0.04, the Anti-ovalbumin antibody titer [1, 4] was 2250 ± 100 and the Adjuvant index [1, 5] was 1.75 ± 0.06. It also gave an Anti-ovalbumin antibody titer [1, 5] of 4300 ± 150, an Adjuvant index [1, 6] of 7.3 ± 0.08 and an Anti-ovalbumin antibody titer [1, 6] of 43500 ± 400. It also gave an Adjuvant index [1, 7] of 7.55 ± 0.06, an Anti-ovalbumin antibody titer [1, 7] of 19000 ± 200 and an Adjuvant index [1, 8] of 2.6 ± 0.05. It also gave an Anti-ovalbumin antibody titer [1, 8] of 15700 ± 280, an Adjuvant index [1, 9] of 0.8 ± 0.008 and an Anti-ovalbumin antibody titer [1, 9] of 2000 ± 20. For the same compound, the Adjuvant index [1, 10] was 0.9 ± 0.03, the Anti-ovalbumin antibody titer [1, 10] was 5400 ± 200 and the “adjuvant dose at which antibody titer peaked” value ([1]; first immunization with 5-10 μg of OVA) was 1 μg/mouse. The “adjuvant activity (in words)” value ([1]; ovalbumin in mice) was “strongly enhanced antibody response”, the “anti-ovalbumin antibody titer relative to the titer of control serum” value ([1]; under optimal conditions) was 6.5-7.5 times and the “protection from E. coli infection (in words)” value (E. coli strain K12) was “substantial protection; also recorded: substantial anti-infective mode of action”. The “anti-polysaccharide antibody titer (in words)” value [2] was “increased considerably” and the “anti-RN-peptide antibodies (humoral response to the peptide)” value [3] was “did not reveal any anti-RN-peptide antibodies; also recorded: did not exceed the titer of native mice”.
